Data published in patent US20230135093A1, “TRIAZOLYL DERIVATIVES AS GABA A ALPHA5 PAM” (Hoffmann-La Roche Inc., priority 2020, published 2023).

Columns and labels:
[1] = target: T1, h-GABA-A α5β3γ2 (Homo sapiens, UniProt P18507+P31644); assay: [3H]flumazenil competition binding assay on membranes of HEK293 cells expressing GABAA receptors; conditions: Table 1; displacement of [3H]-Flumazenil (0.5 nM), HEK293 cells expressing human receptors, means of two determinations
T1 construct: expressed in transfected cells; host or cells: Xenopus laevis oocytes, micro-injected with subunit RNA
How it was run: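 Competition for [3H]flumazenil (0.5 nM for α5 subunits) was measured at equilibrium (1 h, 4 °C, Krebs-tris buffer pH 7.5) on transiently transfected HEK293 membranes bearing human α5β3γ2 receptors, with 10^−5 M diazepam defining nonspecific binding. Ki values were derived from filtration and scintillation counting, averaged over duplicates.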

[2] = target: T1, h-GABA-A α5β3γ2; assay: Two-electrode voltage clamp electrophysiology in Xenopus oocytes expressing GABAA receptors (modulation of GABA EC20 current); format: cell-based; conditions: Table 1; for Efficacy (GABA) %: % modulation of GABA EC20 = 100*(Fold increase-1); for Fold increase h-GABA-A α5β3γ2 oocyte: Xenopus oocytes, GABA EC20, test compound at approximatively 30 fold its Ki
How it was run: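 GABA EC20 currents in human α5β3γ2-expressing Xenopus oocytes, voltage-clamped at −80 mV (room temperature, pH 7.4), measured with and without compound at ~30× Ki applied 0.5 min into the second GABA pulse. % modulation = 100×(fold increase−1), taken from the extremum of the current ratio trace; at least 3 oocytes per concentration.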

Row | Compound | Ki [1] [nM] | Efficacy (GABA) % [2] [%] | Fold increase h-GABA-A α5β3γ2 oocyte [2]
1 | Cc1ccc(-c2nnn(C)c2Cn2ncc(N3C[C@@H](C)O[C@@H](C)C3)cc2=O)cn1 [Example 2, 5-(cis-2,6-dimethylmorpholin-4-yl)-2-((3-methyl-5-(6-methylpyridin-3-yl)triazol-4-yl)methyl)pyridazin-3-one] | 4.7 | 230 | –
2 | Cn1nnc(-c2ccc(Cl)cc2F)c1Cn1ncc(N2CC(Oc3ccnc(C(F)(F)F)n3)C2)cc1=O [Example 100, 2-[[5-(4-chloro-2-fluoro-phenyl)-3-methyl-triazol-4-yl]methyl]-5-[3-[2-(trifluoromethyl)pyrimidin-4-yl]oxyazetidin-1-yl]pyridazin-3-one] | 15.9 | 79 | 1.79
3 | Cn1nnc(-c2ncc(C(F)(F)F)cn2)c1Cn1ncc(N2CC(OCC(F)(F)F)C2)cc1=O [Example 120, 2-[[3-methyl-5-[5-(trifluoromethyl)pyrimidin-2-yl]triazol-4-yl]methyl]-5-[3-(2,2,2-trifluoro-ethoxy)azetidin-1-yl]pyridazin-3-one] | 27 | 78 | 1.78
4 | Cc1nnn(-c2ccc(Cl)cc2F)c1Cn1ncc(N2Cc3ccccc3C2)cc1=O [Example 24, 2-[[3-(4-chloro-2-fluoro-phenyl)-5-methyl-triazol-4-yl]methyl]-5-isoindolin-2-yl-pyridazin-3-one] | 52.6 | 60 | 1.6
5 | C[C@@H]1CN(c2cnn(Cc3c(-c4ccc(F)cc4F)nnn3C)c(=O)c2)C[C@H](C)O1 [Example 58, 2-[[5-(2,4-difluorophenyl)-3-methyl-triazol-4-yl]methyl]-5-[(2R,6S)-2,6-dimethylmorpholin-4-yl]pyridazin-3-one] | 7 | 138 | 2.38
6 | COc1ncc(-c2cnn(Cc3c(-c4ccc(Cl)cc4F)nnn3C)c(=O)c2)cc1C [Example 104, 2-((5-(4-chloro-2-fluoro-phenyl)-3-methyl-triazol-4-yl)methyl)-5-(6-methoxy-5-methyl-3-pyridyl)pyridazin-3-one] | 11.8 | 158 | 2.58
7 | Cc1nnn(-c2ccc(Cl)cc2F)c1Cn1ncc(N2CCC(n3ccnc3C)CC2)cc1=O [Example 38, 2-[[3-(4-chloro-2-fluoro-phenyl)-5-methyl-triazol-4-yl]methyl]-5-[4-(2-methylimidazol-1-yl)-1-piperidyl]pyridazin-3-one] | 5.6 | 78 | 1.78
8 | COc1ncc(-c2cnn(Cc3c(C)nnn3-c3ccc(Cl)cc3F)c(=O)c2)cc1Cl [Example 68, 2-((3-(4-chloro-2-fluoro-phenyl)-5-methyl-triazol-4-yl)methyl)-5-(5-chloro-6-methoxy-3-pyridyl)pyridazin-3-one] | 32.2 | 130 | 2.3
9 | Cn1cc(-c2cnn(Cc3c(-c4ccc(Cl)cc4F)nnn3C)c(=O)c2)cn1 [Example 64, 2-((5-(4-chloro-2-fluoro-phenyl)-3-methyl-triazol-4-yl)methyl)-5-(1-methylpyrazol-4-yl)pyridazin-3-one] | 11.2 | 76 | 1.76
10 | CCOC1CN(c2cnn(Cc3c(-c4ccc(Cl)cc4)nnn3C)c(=O)c2)C1 [Example 41, 2-[[5-(4-chlorophenyl)-3-methyl-triazol-4-yl]methyl]-5-(3-ethoxyazetidin-1-yl)pyridazin-3-one] | 37.7 | 47 | 1.47
11 | Cn1nnc(-c2ccc(Cl)cc2F)c1Cn1ncc(N2CC(OCC3CC3)C2)cc1=O [Example 28, 2-[[5-(4-chloro-2-fluoro-phenyl)-3-methyl-triazol-4-yl]methyl]-5-[3-(cyclopropyl-methoxy)azetidin-1-yl]pyridazin-3-one] | 18.4 | 115 | 2.15
12 | Cn1nnc(-c2ncc(C(F)(F)F)cn2)c1Cn1ncc(N2CC(OC3CCC3)C2)cc1=O [Example 117, 5-[3-(cyclo-butoxy)azetidin-1-yl]-2-[[3-methyl-5-[5-(trifluoromethyl)pyrimidin-2-yl]triazol-4-yl]methyl]pyridazin-3-one] | 52.7 | 87 | 1.87
13 | CCn1nnc(-c2ccc(Cl)cc2F)c1Cn1ncc(N2CC(OC(F)F)C2)cc1=O [Example 88, 2-[[5-(4-chloro-2-fluoro-phenyl)-3-ethyl-triazol-4-yl]methyl]-5-[3-(difluoromethoxy)azetidin-1-yl]pyridazin-3-one] | 7 | 126 | 2.26
14 | Cn1nnc(-c2ccc(Cl)cc2F)c1Cn1ncc(N2CC(Oc3cccnn3)C2)cc1=O [Example 79, 2-((5-(4-chloro-2-fluoro-phenyl)-3-methyl-triazol-4-yl)methyl)-5-(3-pyridazin-3-yloxyazetidin-1-yl)pyridazin-3-one] | 11 | 88 | 1.88
15 | COc1cc(-c2cnn(Cc3c(-c4ccc(Cl)cc4F)nnn3C)c(=O)c2)cnc1Cl [Example 108, 2-((5-(4-chloro-2-fluoro-phenyl)-3-methyl-triazol-4-yl)methyl)-5-(6-chloro-5-metlioxy-3-pyridyl)pyridazin-3-one] | 16.8 | 46 | 1.46
16 | Cc1ccc(-n2nnc(C)c2Cn2ncc(N3C[C@@H](C)O[C@@H](C)C3)cc2=O)cn1 [Example 1, 5-(cis-2,6-dimethylmorpholin-4-yl)-2-((5-methyl-3-(6-methylpyridin-3-yl)triazol-4-yl)methyl)pyridazin-3-one] | 34.4 | 190 | 2.9
17 | Cn1nnc(-c2ccc(Cl)cc2F)c1Cn1ncc(N2CC(OCC(F)(F)F)C2)cc1=O [Example 50, 2-((5-(4-chloro-2-fluoro-phenyl)-3-methyl-triazol-4-yl)methyl)-5-(3-(2,2,2-trifluoro-ethoxy)azetidin-1-yl)pyridazin-3-one] | 5.2 | 67 | 1.67
18 | Cc1ccc(-c2nnn(C)c2Cn2ncc(N3CCCC3)cc2=O)cn1 [Example 8, 2-((3-methyl-5-(6-methyl-3-pyridyl)triazol-4-yl)methyl)-5-pyrrolidin-1-yl-pyridazin-3-one] | 20.9 | 130 | 2.3
19 | Cn1nnc(-c2ccc(C(F)(F)F)cc2F)c1Cn1ncc(N2CC(OC3CCC3)C2)cc1=O [Example 77, 5-[3-(cyclo-butoxy)azetidin-1-yl]-2-[[5-[2-fluoro-4-(trifluoro-methyl)phenyl]-3-methyl-triazol-4-yl]methyl]pyridazin-3-one] | 18.4 | 66 | 1.66
20 | C[C@@H]1CN(c2cnn(Cc3c(-c4ccc(Cl)cc4)nnn3C)c(=O)c2)C[C@H](C)O1 [Example 30, 2-[[5-(4-chlorophenyl)-3-methyl-triazol-4-yl]methyl]-5-[(2R,6S)-2,6-dimethylmorpholin-4-yl]pyridazin-3-one] | 3.1 | 110 | 2.1
21 | Cn1nnc(-c2ccc(Cl)cc2F)c1Cn1ncc(N2CC3(CCCCO3)C2)cc1=O [Example 95, 2-[[5-(4-chloro-2-fluoro-phenyl)-3-methyl-triazol-4-yl]methyl]-5-(5-oxa-2-azaspiro[3.5]nonan-2-yl)pyridazin-3-one] | 11.1 | 58 | 1.58
22 | C[C@@H]1CCCN1c1cnn(Cc2c(-c3ccc(Cl)nc3)nnn2C)c(=O)c1 [Example 109, 2-[[5-(6-chloro-3-pyridyl)-3-methyl-triazol-4-yl]methyl]-5-[(2R)-2-methylpyrrolidin-1-yl]pyridazin-3-one] | 1.1 | 75 | 1.75
23 | Cn1nnc(-c2ccc(Cl)cc2F)c1Cn1ncc(N2CC(Oc3cncc(C(F)(F)F)n3)C2)cc1=O [Example 98, 2-[[5-(4-chloro-2-fluoro-phenyl)-3-methyl-triazol-4-yl]methyl]-5-[3-[6-(trifluoro-methyl)pyrazin-2-yl]oxyazetidin-1-yl]pyridazin-3-one] | 8 | 58 | 1.58
24 | Cn1nnc(-c2ccc(Cl)cc2F)c1Cn1ncc(N2CC(OC(C)(C)C)C2)cc1=O [Example 96, 5-(3-tert-butoxyazetidin-1-yl)-2-[[5-(4-chloro-2-fluoro-phenyl)-3-methyl-triazol-4-yl]methyl]pyridazin-3-one] | 20.4 | 54 | 1.54
25 | Cc1nnn(-c2ccc(Cl)cc2F)c1Cn1ncc(N2CCN(C(=O)C3CC3)CC2)cc1=O [Example 6, 2-((3-(4-chloro-2-fluoro-phenyl)-5-methyl-triazol-4-yl)methyl)-5-(4-(cyclopropane-carbonyl)piperazin-1-yl)pyridazin-3-one] | 71.8 | 121 | 2.21
